Key:
[1] = system: Human umbilical vein endothelial cells; assay: Disruption of endothelial cell adhesion (VE-cadherin immunolabeling); type: cell-based
Method: Human umbilical vein endothelial cells were cultured using standard procedures (see Ichikawa et al., Amer. J. Physiol. 273 (Gastrointest. Liver Physiol. 36): […], 1997). Cells were maintained in EGM (Clonetics, San Diego, Calif.) and used at P2 for all experiments. Endothelial identity was established by Dil-LDL and factor VIII staining.
The cells were cultured on glass coverslips. Monolayers were exposed to peptides at a concentration of 75 μg/mL for 60 minutes. The cells were then fixed with 95% ethanol for 30 minutes at 4° C., followed by acetone for one minute and left to air dry at room temperature. Primary antibody for VE-cadherin (Immunotech, MarseiIles, France; 1:250) was added for one hour at 37° C. Coverslips were then washed with 0.1% milk/PBS solution three times for five minutes each. Secondary antibody (1:250), goat anti-rabbit FITC (Zymed, San Francisco, Calif.) was incubated at 37° C. for one hour. Coverslips were again washed with 0.1% milk/PBS solution three times for five minutes each. Coverslips were mounted with anti-quenching solution (1 mg/mL phenylenediamine (Sigma, St. Louis, Mo.) in 50% glycerol, 50% PBS). All photographs were taken at 400× and 1000× with exposure times of 12 seconds.

[2] = system: MDA-MB-231 human breast cancer cells; assay: Disruption of human breast cancer cell adhesion (phase contrast microscopy); type: cell-based; conditions: 100 μl of 10 mg/ml peptide stock added to 1 ml DMEM containing 5% serum; for cell morphology and attachment to the substratum: after 24 hours, cells express cadherin-11 (OB-cadherin) but not N-cadherin or E-cadherin
Method: MDA-MB-231 human breast cancer cells (Lombardi Cancer Research Center, Washington, D.C.) were used in these experiments. They express cadherin-11 (also known as OB-cadherin) but not N-cadherin or E-cadherin. The cells were plated (˜50.000 cells) on glass coverslips and cultured for 24 hours in DMEM containing 5% serum. Peptides (N-Ac-IFVIDDKSG-NH2 (SEQ ID NO:85) and H-IFVIDDKSG-OH (SEQ ID NO:85)) were dissolved in sterile water (10 mg/ml), and 100 μl of each peptide stock solution was added to 1 ml of DMEM containing 5% serum. Control cells had 100 μl of water added to the medium. Cells were monitored by phase contrast microscopy. After 24 hours cells were fixed in formaldehyde. […] The amino acid sequence of this peptide is identical to that which is found in the first extracellular domain of OB-cadherin.

Row | Substance | activity relative to similar peptide without the N- and C-terminal functional groups ([1]; 75 μg/mL for 60 minutes, comparison with H-VFRVDAETGD-OH) | effect on endothelial cell adhesion ([1]; 75 μg/mL peptide for 60 minutes, monolayers on glass coverslips, VE-cadherin immunolabel, 400× and 1000×) | effect on cell adhesion ([2]; 24 hours) | cell morphology and attachment to the substratum [2]
1 | N-Ac-VFRVDAETGD-NH2 | substantially greater | disrupts endothelial cell adhesion |  | 
2 | N-Ac-IFVIDDKSG-NH2 |  |  | interferes with cell adhesion | rounded up from each other and were not well-attached to the substratum
3 | H-IFVIDDKSG-OH |  |  |  | remained flattened and well-attached to the substratum

Reference: patent US6569996B1, “Antibody that specifically binds to the cadherin-5 cell adhesion recognition sequence” (Adherex Technologies, Inc., priority 1998, dated 2003)
